Measurements from patent publication US9416115B2, “Fused heterocyclic compounds as ion channel modulators” (Gilead Sciences, Inc., priority 2013, dated 2016).

How the values were obtained:
Assay type in all cases: cell-based
hNav1.3 (SCN3A) = target: T1, hNav1.3 (SCN3A) (Homo sapiens, UniProt Q9NY46); test: Voltage-dependent inhibition of the Nav1.3 sodium channel; details: voltage-dependent block of peak current, read-out: Nav 1.3-VDB 1 uM
T1 construct: expressed in transfected cells
Experimental: HEK-293 cells stably expressing wild-type (WT) hNav1.3 (SCN3A NCBI # NP 001075, SCN1B NCBI # NM 001037.4, SCN2B NCBI # NM 004588.2) were used to record INa. Cells are maintained with standard tissue culture procedures and stable channel expression is maintained with 800 ug/mL G418 and 3 ug/mL Puromycin in the culture medium. Unless otherwise noted, all reagents are purchased from Sigma-Aldrich (St Louis, Mo., U.S.A.).
Assays measuring Voltage-Dependent Block (VDB) of Nav1.3 are performed on an automated electrophysiology platform, QPatch 16X or QPatch HT (Sophion Bioscience, Copenhagen, Denmark), using the whole cell patch clamp technique to measure currents through the cell membrane. Series resistance compensation is set to 100% and series resistance and whole-cell compensation are performed automatically. Currents stored in the Sophion Bioscience Oracle database (Sophion Bioscience, Copenhagen, Denmark). Analysis is performed using QPatch Assay software and data are compiled in Excel 2010 (Microsoft, Seattle, Wash., U.S.A.).
The internal (pipette) solution consists of (in mM) 105 CsF, 10 NaF, 20 CsCl, 2 EGTA, 10 HEPES, 10 Dextrose with a pH of 7.35 and osmolarity of 300 mOsmol/kg. The external (bath) solution contains in (mM): 80 NaCl, 60 Choline-Cl, 4 KCl, 1.8 CaCl2, 1 MgCl2, 10 dextrose, 10 HEPES, with a pH of 7.35 and osmolarity of 310 mOsmol/kg. Experiments are carried out at 23-25° C.
Compound stocks are routinely made by the Gilead Sample Bank in vials to 10 mM in dimethyl sulfoxide (DMSO). In some cases, when compounds are not soluble in DMSO, they are made in 100% ethanol. Stocks are sonicated as necessary. Compounds are diluted in extracellular solution using a MicroLab Nimbus (Hamilton Robotics, Reno, Nev.) to 1 μM in glass vials and transferred to glass well plates before robotic addition to the cells.
Cells are allowed to stabilize for 10 min after establishment of the whole-cell configuration before current is measured. The test compound is applied 3 times at 120 second intervals to allow for equilibration. Currents were leak subtracted using a P/4 procedure, low-pass Bessel filtered at 5 kHz and digitized at 25 kHz. Results are presented as mean percentage inhibition.
Voltage-dependent block of Nav1.3 peak current was measured during a voltage step to 0 mV (20 ms) following a voltage step pre-conditioning steps (−55 mV for 10 sec followed by −120 mV for 10 ms). The holding potential was −120 mV and this voltage protocol induces half maximal inactivation of Nav1.3. The voltage protocol for VDB was performed every 45 seconds in the absence and presence of compound and percentage inhibition was calculated with respect to the compound free condition.

hNaV1.2 (SCN2A) = target: T2, hNaV1.2 (SCN2A) (Homo sapiens, UniProt Q99250); test: Use-dependent inhibition of the CNS Nav1.2 sodium channel; details: use-dependent block, 25 Hz, pulse 20, read-out: Nav1.2 UDB 25 Hz 10 uM
T2 construct: expressed in transfected cells
T2 sequence (Q99250 whole entry): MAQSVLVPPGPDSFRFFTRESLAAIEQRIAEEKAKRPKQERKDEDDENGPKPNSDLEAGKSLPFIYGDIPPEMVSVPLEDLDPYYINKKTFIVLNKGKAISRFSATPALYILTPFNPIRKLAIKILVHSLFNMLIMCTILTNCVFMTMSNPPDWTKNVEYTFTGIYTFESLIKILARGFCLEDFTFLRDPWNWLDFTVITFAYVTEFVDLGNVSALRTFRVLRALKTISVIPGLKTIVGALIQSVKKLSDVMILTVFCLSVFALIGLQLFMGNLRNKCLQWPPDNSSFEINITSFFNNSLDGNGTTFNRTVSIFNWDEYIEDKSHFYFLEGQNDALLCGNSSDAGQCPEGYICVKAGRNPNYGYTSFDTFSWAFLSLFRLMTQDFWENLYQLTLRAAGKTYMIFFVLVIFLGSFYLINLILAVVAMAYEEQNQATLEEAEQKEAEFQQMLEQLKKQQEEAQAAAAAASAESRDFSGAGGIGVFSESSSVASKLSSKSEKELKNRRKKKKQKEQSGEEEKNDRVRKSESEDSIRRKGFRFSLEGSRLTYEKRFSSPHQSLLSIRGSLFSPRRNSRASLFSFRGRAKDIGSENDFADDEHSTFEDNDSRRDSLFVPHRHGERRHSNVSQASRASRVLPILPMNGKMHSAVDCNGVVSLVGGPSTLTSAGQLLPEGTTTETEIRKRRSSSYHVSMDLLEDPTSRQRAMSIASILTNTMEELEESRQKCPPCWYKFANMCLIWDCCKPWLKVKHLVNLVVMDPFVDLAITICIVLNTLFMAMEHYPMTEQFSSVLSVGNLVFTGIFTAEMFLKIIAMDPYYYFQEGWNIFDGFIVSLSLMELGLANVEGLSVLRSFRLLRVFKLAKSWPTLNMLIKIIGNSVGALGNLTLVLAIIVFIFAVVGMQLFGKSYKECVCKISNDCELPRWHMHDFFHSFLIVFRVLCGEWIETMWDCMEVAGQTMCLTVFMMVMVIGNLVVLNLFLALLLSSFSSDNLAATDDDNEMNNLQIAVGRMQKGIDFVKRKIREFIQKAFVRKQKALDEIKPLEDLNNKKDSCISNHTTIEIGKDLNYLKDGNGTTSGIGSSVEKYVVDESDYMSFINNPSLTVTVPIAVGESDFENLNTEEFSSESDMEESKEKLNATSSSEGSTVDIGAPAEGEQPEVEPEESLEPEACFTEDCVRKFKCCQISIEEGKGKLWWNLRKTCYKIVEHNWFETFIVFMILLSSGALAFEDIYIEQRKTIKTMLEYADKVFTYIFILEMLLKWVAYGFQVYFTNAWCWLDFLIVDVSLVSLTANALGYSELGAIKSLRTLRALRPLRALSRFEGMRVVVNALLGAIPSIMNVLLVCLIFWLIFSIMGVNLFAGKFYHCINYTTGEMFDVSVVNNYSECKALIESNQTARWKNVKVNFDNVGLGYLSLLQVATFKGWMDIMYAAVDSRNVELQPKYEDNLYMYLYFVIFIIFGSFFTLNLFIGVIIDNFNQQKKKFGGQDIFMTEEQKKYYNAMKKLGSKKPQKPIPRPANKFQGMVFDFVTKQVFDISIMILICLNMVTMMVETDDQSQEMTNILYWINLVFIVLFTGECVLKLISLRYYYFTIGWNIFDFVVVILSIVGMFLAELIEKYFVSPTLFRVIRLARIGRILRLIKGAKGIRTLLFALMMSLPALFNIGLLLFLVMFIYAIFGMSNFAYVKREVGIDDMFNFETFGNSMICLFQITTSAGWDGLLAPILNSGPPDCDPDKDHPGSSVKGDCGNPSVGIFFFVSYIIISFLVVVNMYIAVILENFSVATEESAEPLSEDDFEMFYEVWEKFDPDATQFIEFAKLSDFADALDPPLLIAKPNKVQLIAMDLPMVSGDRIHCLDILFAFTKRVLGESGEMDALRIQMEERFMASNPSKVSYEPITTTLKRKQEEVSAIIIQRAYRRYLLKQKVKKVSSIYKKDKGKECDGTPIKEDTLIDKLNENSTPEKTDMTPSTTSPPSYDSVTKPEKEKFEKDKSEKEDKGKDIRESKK
T2 sequence (Q07699 19-218 partner): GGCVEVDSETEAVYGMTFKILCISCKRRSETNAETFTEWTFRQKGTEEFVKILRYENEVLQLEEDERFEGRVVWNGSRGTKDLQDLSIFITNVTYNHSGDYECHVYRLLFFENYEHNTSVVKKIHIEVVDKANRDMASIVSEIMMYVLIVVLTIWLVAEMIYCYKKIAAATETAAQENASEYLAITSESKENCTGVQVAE
T2 sequence (O60939 30-215 partner): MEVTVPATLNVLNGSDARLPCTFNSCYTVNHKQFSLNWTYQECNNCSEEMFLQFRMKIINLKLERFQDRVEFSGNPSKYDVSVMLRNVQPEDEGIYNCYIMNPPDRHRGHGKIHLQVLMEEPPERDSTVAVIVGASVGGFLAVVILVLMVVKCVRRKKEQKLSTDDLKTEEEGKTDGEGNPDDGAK
Procedure, shortened: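 Use-dependent block of human Nav1.2 was measured by automated whole-cell patch clamp (QPatch) in HEK-293 cells stably expressing hNaV1.2 with SCN1B and SCN2B. From a holding potential of −120 mV, a train of 20 pulses to 0 mV (20 ms, 25 Hz) was applied. Peak current at pulse 20 was normalized to the first pulse, and percent inhibition was calculated relative to compound-free recordings.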

hNav1.1 (SCN1A) = hNav1.1 (SCN1A) (Homo sapiens, UniProt P35498); test: Use-dependent inhibition of the CNS Nav1.1 sodium channel; details: use-dependent block, 25 Hz, pulse 20, read-out: Nav1.1 UDB 25 Hz 10 uM
Procedure, shortened: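 HEK-293 cells stably expressing WT hNav1.1, automated whole-cell patch clamp at 23-25 °C with CsF-based internal and NaCl external solutions, pH 7.35. Compound applied twice, 200 s equilibration; block measured at pulse 20 of a 25 Hz train (0 mV, 20 ms) from −120 mV, as mean % inhibition versus compound-free.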

T1 sequence (Q9NY46 1-1951 isoform Q9NY46-2): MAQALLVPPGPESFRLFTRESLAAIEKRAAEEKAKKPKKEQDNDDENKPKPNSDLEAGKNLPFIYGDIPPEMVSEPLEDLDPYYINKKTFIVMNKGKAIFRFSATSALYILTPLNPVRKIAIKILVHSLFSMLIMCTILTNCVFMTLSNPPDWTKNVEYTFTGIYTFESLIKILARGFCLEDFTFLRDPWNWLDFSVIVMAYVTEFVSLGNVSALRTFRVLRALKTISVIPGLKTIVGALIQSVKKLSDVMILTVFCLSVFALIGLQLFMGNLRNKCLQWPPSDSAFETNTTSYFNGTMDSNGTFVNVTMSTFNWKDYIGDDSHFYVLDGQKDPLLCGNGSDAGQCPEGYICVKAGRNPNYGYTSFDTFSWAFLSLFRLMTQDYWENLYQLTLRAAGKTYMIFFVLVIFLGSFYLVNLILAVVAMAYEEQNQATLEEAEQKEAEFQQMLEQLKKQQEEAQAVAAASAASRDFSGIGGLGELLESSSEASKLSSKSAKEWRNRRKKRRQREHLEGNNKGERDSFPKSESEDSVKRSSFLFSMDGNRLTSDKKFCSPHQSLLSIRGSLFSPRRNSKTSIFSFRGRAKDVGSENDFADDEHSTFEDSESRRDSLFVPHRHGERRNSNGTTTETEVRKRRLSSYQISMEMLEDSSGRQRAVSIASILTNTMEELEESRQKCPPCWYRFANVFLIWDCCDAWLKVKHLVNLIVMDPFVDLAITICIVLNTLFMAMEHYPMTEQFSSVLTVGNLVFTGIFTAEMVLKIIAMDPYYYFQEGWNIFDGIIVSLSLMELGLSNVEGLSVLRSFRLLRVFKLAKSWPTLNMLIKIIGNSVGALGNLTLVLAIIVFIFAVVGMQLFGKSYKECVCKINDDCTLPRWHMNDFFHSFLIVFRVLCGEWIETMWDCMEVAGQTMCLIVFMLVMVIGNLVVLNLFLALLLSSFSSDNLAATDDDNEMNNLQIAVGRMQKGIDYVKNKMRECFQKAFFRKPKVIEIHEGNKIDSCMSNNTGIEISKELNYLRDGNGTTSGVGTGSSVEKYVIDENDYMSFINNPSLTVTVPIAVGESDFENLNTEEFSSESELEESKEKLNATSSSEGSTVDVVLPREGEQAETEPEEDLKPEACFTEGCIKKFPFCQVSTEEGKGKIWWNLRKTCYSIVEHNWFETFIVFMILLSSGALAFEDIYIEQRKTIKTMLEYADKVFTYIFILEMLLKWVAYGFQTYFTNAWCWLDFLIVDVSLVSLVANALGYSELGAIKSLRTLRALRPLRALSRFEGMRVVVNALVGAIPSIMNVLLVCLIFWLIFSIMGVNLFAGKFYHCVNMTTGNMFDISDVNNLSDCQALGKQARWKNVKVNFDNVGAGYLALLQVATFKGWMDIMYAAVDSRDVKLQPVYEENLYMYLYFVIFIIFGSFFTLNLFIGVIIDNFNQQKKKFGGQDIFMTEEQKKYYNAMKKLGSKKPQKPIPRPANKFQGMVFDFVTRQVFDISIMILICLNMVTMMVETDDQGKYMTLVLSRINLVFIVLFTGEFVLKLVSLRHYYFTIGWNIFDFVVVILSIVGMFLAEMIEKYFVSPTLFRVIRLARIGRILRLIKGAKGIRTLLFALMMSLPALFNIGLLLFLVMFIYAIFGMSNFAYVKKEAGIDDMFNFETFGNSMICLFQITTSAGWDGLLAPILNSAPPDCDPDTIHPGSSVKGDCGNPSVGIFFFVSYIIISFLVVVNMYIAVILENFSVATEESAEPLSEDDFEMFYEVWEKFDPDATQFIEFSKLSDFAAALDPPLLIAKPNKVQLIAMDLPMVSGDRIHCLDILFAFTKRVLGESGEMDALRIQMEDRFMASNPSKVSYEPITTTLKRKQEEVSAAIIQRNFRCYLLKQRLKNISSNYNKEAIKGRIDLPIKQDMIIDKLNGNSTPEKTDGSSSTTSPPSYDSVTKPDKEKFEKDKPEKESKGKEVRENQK
T1 sequence (Q07699 19-218 partner): as the sequence (Q07699 19-218 partner) above
T1 sequence (O60939 30-215 partner): as the sequence (O60939 30-215 partner) above

SMILES | inhibition at 1 µM (hNav1.3 (SCN3A)) | inhibition at 10 µM (hNaV1.2 (SCN2A)) | inhibition at 10 µM (hNav1.1 (SCN1A))
FC(F)(F)COc1ccc(-c2ccc3onc(OCc4ncccn4)c3c2)cn1 [Example 21, 3-(pyrimidin-2-ylmethoxy)-5-(6-(2,2,2-trifluoroethoxy)pyridin-3-yl)benzo[d]isoxazole] | 11.2% | < 5% | < 5%
COc1cc(-c2ccc(C(F)(F)F)cc2F)cc2c(OCc3ncccn3)noc12 [Example 24, 5-(2-fluoro-4-(trifluoromethyl)phenyl)-7-methoxy-3-(pyrimidin-2-ylmethoxy)benzo[d]isoxazole] | < 5% | < 5% | < 5%
COc1cc(-c2ccc(OC(F)(F)F)cc2C)cc2c(OCc3ncccn3)noc12 [Example 25, 7-methoxy-5-(2-methyl-4-(trifluoromethoxy)phenyl)-3-(pyrimidin-2-ylmethoxy)benzo[d]isoxazole] | 12.3% | < 5% | < 5%
Cc1cc(OC(F)(F)F)ccc1-c1cc2c(OCc3ncccn3)noc2cc1C [Example 29, 6-methyl-5-(2-methyl-4-(trifluoromethoxy)phenyl)-3-(pyrimidin-2-ylmethoxy)benzo[d]isoxazole] | 39.5% | < 5% | < 5%
FC1(F)Oc2ccc(-c3ccc4onc(OCc5ncccn5)c4c3)cc2O1 [Example 30, 5-(2,2-difluorobenzo[d][1,3]dioxol-5-yl)-3-(pyrimidin-2-ylmethoxy)benzo[d]isoxazole] | 21.5% | < 5% | < 5%
FC(F)(F)Oc1ccc(-c2ccc3onc(OCc4cn5ccccc5n4)c3c2)cc1 [Example 51, 3-(imidazo[1,2-a]pyridin-2-ylmethoxy)-5-(4-(trifluoromethoxy)phenyl)benzo[d]isoxazole] | 26.6% | 15.7% | 30%
O=C1CC[C@H](COc2noc3ccc(-c4ccc(OC(F)(F)F)cc4)cc23)N1 [Example 61, (R)-5-(((5-(4-(trifluoromethoxy)phenyl)benzo[d]isoxazol-3-yl)oxy)methyl)pyrrolidin-2-one] | 8.6% | 31% | 28.7%
OCC1(COc2noc3ccc(-c4ccc(OC(F)(F)F)cc4)cc23)COC1 [Example 97, (3-(((5-(4-(trifluoromethoxy)phenyl)benzo[d]isoxazol-3-yl)oxy)methyl)oxetan-3-yl)methanol] |  | 34.3% | 46.3%
CC(Oc1noc2ccc(-c3ccc(OC(F)(F)F)cc3)cc12)c1ccccn1 (stereo not shown) [Example 98, 3-(1-(pyridin-2-yl)ethoxy)-5-(4-(trifluoromethoxy)phenyl)benzo[d]isoxazole] |  | < 5% | 15.9%
